Experimental data from PubChem BioAssay (NCI).
Several values for one entry are separate records, joined by “and”; a condition that tells them apart may be missing. Equal values may be shown once.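 Each compound was tested at five concentrations against cells in 96-well plates for 48 hours. At the GI50, growth is halved. TGI: concentration producing complete growth inhibition.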

Columns and labels:
Test in all cases: DTP human tumour cell line panel, 48 h
CAKI-1 renal = tested on: CAKI-1 renal
ACHN renal = tested on: ACHN renal
SF-295 CNS = tested on: SF-295 CNS
PC-3 prostate = tested on: PC-3 prostate
DU-145 prostate = tested on: DU-145 prostate
SK-MEL-5 melanoma = tested on: SK-MEL-5 melanoma
NCI-H460 lung = tested on: NCI-H460 lung
MDA-N = tested on: MDA-N
786-0 renal = tested on: 786-0 renal
A498 renal = tested on: A498 renal
OVCAR-3 ovarian = tested on: OVCAR-3 ovarian
NCI-H226 lung = tested on: NCI-H226 lung
CCRF-CEM leukemia = tested on: CCRF-CEM leukemia
UACC-62 melanoma = tested on: UACC-62 melanoma
DMS 114 small cell lung = tested on: DMS 114 small cell lung
HOP-92 NSCLC = tested on: HOP-92 NSCLC
EKVX NSCLC = tested on: EKVX NSCLC
SK-OV-3 ovarian = tested on: SK-OV-3 ovarian
HCT-116 colon = tested on: HCT-116 colon
DLD-1 colon = tested on: DLD-1 colon
SNB-75 CNS = tested on: SNB-75 CNS
DMS 273 small cell lung = tested on: DMS 273 small cell lung
LOX IMVI melanoma = tested on: LOX IMVI melanoma
HCT-15 colon = tested on: HCT-15 colon
SK-MEL-28 melanoma = tested on: SK-MEL-28 melanoma
MDA-MB-435 = tested on: MDA-MB-435
HOP-18 NSCLC = tested on: HOP-18 NSCLC
NCI-H23 lung = tested on: NCI-H23 lung
LXFL 529 NSCLC = tested on: LXFL 529 NSCLC
XF 498 CNS = tested on: XF 498 CNS
SR leukemia = tested on: SR leukemia
UO-31 renal = tested on: UO-31 renal
BT-549 breast = tested on: BT-549 breast
M19-MEL melanoma = tested on: M19-MEL melanoma
T-47D breast = tested on: T-47D breast
KM20L2 colon = tested on: KM20L2 colon
KM12 colon = tested on: KM12 colon
SW-620 colon = tested on: SW-620 colon
SK-MEL-2 melanoma = tested on: SK-MEL-2 melanoma
UACC-257 melanoma = tested on: UACC-257 melanoma
U251 CNS = tested on: U251 CNS
HL-60(TB) leukemia = tested on: HL-60(TB) leukemia
K-562 leukemia = tested on: K-562 leukemia
OVCAR-5 ovarian = tested on: OVCAR-5 ovarian
MOLT-4 leukemia = tested on: MOLT-4 leukemia
M14 melanoma = tested on: M14 melanoma
SNB-19 CNS = tested on: SNB-19 CNS
SNB-78 CNS = tested on: SNB-78 CNS
RXF 393 renal = tested on: RXF 393 renal
OVCAR-4 ovarian = tested on: OVCAR-4 ovarian
MCF7 breast = tested on: MCF7 breast
MDA-MB-231 breast = tested on: MDA-MB-231 breast
TK-10 renal = tested on: TK-10 renal
HCC-2998 colon = tested on: HCC-2998 colon
MALME-3M melanoma = tested on: MALME-3M melanoma
RPMI-8226 leukemia = tested on: RPMI-8226 leukemia
NCI/ADR-RES ovarian = tested on: NCI/ADR-RES ovarian
SN12C renal = tested on: SN12C renal
HOP-62 NSCLC = tested on: HOP-62 NSCLC
IGROV1 ovarian = tested on: IGROV1 ovarian
COLO 205 colon = tested on: COLO 205 colon
SF-539 CNS = tested on: SF-539 CNS
SF-268 CNS = tested on: SF-268 CNS
HS 578T breast = tested on: HS 578T breast
OVCAR-8 ovarian = tested on: OVCAR-8 ovarian
HT29 colon = tested on: HT29 colon
A549 NSCLC = tested on: A549 NSCLC
NCI-H522 lung = tested on: NCI-H522 lung

For C=C(CN(C)C)C(=O)c1ccc(OC)cc1, the TGI (CAKI-1 renal) was 5.18 µM, the TGI (ACHN renal) was 3.01 µM and the TGI (SF-295 CNS) was 45.7 µM. For the same compound, the TGI (PC-3 prostate) was 28.5 µM, the TGI (DU-145 prostate) was 10.7 µM and the TGI (SK-MEL-5 melanoma) was 18 µM. For the same compound, the TGI (NCI-H460 lung) was 44.6 µM, the TGI (MDA-N) was 22.5 µM and the TGI (786-0 renal) was 5.78 µM. The TGI (A498 renal) was 25.6 µM, the TGI (OVCAR-3 ovarian) was 10.4 µM and the TGI (NCI-H226 lung) was 29.4 µM. For the same compound, the TGI (CCRF-CEM leukemia) was 1.08 µM, the TGI (UACC-62 melanoma) was 20.4 µM and the TGI (DMS 114 small cell lung) was 8.38 µM. For the same compound, the TGI (HOP-92 NSCLC) was 3.28 µM, the TGI (EKVX NSCLC) was 44.8 µM and the TGI (SK-OV-3 ovarian) was 41.3 µM. The TGI (HCT-116 colon) was 12.8 µM, the TGI (DLD-1 colon) was 2.03 µM and the TGI (SNB-75 CNS) was 39.9 µM. The TGI (DMS 273 small cell lung) was 11.6 µM, the TGI (LOX IMVI melanoma) was 25.4 µM and the TGI (HCT-15 colon) was 5.96 µM. It also gave a TGI (SK-MEL-28 melanoma) of 8.63 µM, a TGI (MDA-MB-435) of 26.4 µM and a TGI (HOP-18 NSCLC) of 9.35 µM. The TGI (NCI-H23 lung) was 22.2 µM, the TGI (LXFL 529 NSCLC) was 3.31 µM and the TGI (XF 498 CNS) was 5.1 µM. The TGI (SR leukemia) was 5.27 µM, the TGI (UO-31 renal) was 7.92 µM and the TGI (BT-549 breast) was 18.1 µM. The TGI (M19-MEL melanoma) was 7.52 µM, the TGI (T-47D breast) was 4.62 µM and the TGI (KM20L2 colon) was 13.7 µM. For the same compound, the TGI (KM12 colon) was 39.4 µM, the TGI (SW-620 colon) was 5.08 µM and the TGI (SK-MEL-2 melanoma) was 13.2 µM. It also gave a TGI (UACC-257 melanoma) of 11.6 µM, a TGI (U251 CNS) of 28.8 µM and a TGI (HL-60(TB) leukemia) of 0.631 µM. It also gave a TGI (K-562 leukemia) of 4.39 µM, a TGI (OVCAR-5 ovarian) of 29.8 µM and a TGI (MOLT-4 leukemia) of 2.06 µM. The TGI (M14 melanoma) was 5.66 µM, the TGI (SNB-19 CNS) was 40.3 µM and the TGI (SNB-78 CNS) was 7.83 µM. For the same compound, the TGI (RXF 393 renal) was 24.9 µM, the TGI (OVCAR-4 ovarian) was 22.1 µM and the TGI (MCF7 breast) was 21.4 µM. For the same compound, the TGI (MDA-MB-231 breast) was 17.3 µM, the TGI (TK-10 renal) was 7.88 µM and the TGI (HCC-2998 colon) was 22.4 µM. For the same compound, the TGI (MALME-3M melanoma) was 3.5 µM, the TGI (RPMI-8226 leukemia) was 9.19 µM and the TGI (NCI/ADR-RES ovarian) was 34.2 µM. For the same compound, the TGI (SN12C renal) was 7.1 µM, the TGI (HOP-62 NSCLC) was 51.9 µM and the TGI (IGROV1 ovarian) was 22 µM. It also gave a TGI (COLO 205 colon) of 1.39 µM, a TGI (SF-539 CNS) of 9.56 µM and a TGI (SF-268 CNS) of 50.5 µM. It also gave a TGI (HS 578T breast) of over 87 µM, a TGI (OVCAR-8 ovarian) of 3.17 µM and a TGI (HT29 colon) of 25.1 µM. For the same compound, the TGI (A549 NSCLC) was 42.8 µM.

Work on Nc1ccn(CC(CO)CC(c2ccccc2)P(=O)(O)O)c(=O)n1 (stereo unspecified) yielded a TGI (CAKI-1 renal) of over 100 µM, a TGI (ACHN renal) of over 100 µM and a TGI (SF-295 CNS) of over 100 µM. The TGI (SK-MEL-5 melanoma) was over 100 µM, the TGI (NCI-H460 lung) was over 100 µM and the TGI (786-0 renal) was over 100 µM. It also gave a TGI (A498 renal) of over 100 µM, a TGI (NCI-H522 lung) of over 100 µM and a TGI (OVCAR-3 ovarian) of over 100 µM. For the same compound, the TGI (NCI-H226 lung) was over 100 µM, the TGI (CCRF-CEM leukemia) was over 100 µM and the TGI (UACC-62 melanoma) was over 100 µM. It also gave a TGI (DMS 114 small cell lung) of over 100 µM, a TGI (HOP-92 NSCLC) of over 100 µM and a TGI (EKVX NSCLC) of over 100 µM. It also gave a TGI (SK-OV-3 ovarian) of over 100 µM, a TGI (HCT-116 colon) of over 100 µM and a TGI (DLD-1 colon) of over 100 µM. For the same compound, the TGI (SNB-75 CNS) was 28.4 µM and > 100 µM, the TGI (DMS 273 small cell lung) was over 100 µM and the TGI (LOX IMVI melanoma) was over 100 µM. The TGI (HCT-15 colon) was over 100 µM, the TGI (SK-MEL-28 melanoma) was over 100 µM and the TGI (HOP-18 NSCLC) was over 100 µM. For the same compound, the TGI (NCI-H23 lung) was over 100 µM, the TGI (LXFL 529 NSCLC) was over 100 µM and the TGI (XF 498 CNS) was over 100 µM. It also gave a TGI (SR leukemia) of over 100 µM, a TGI (UO-31 renal) of over 100 µM and a TGI (M19-MEL melanoma) of over 100 µM. It also gave a TGI (KM20L2 colon) of over 100 µM, a TGI (KM12 colon) of over 100 µM and a TGI (SW-620 colon) of over 100 µM. For the same compound, the TGI (SK-MEL-2 melanoma) was over 100 µM, the TGI (UACC-257 melanoma) was over 100 µM and the GI50 (U251 CNS) was 28.2 µM and > 100 µM. For the same compound, the TGI (U251 CNS) was over 100 µM, the TGI (HL-60(TB) leukemia) was over 100 µM and the TGI (K-562 leukemia) was over 100 µM. The TGI (OVCAR-5 ovarian) was over 100 µM, the TGI (MOLT-4 leukemia) was over 100 µM and the TGI (M14 melanoma) was over 100 µM. It also gave a TGI (SNB-19 CNS) of over 100 µM, a TGI (SNB-78 CNS) of over 100 µM and a TGI (RXF 393 renal) of over 100 µM. It also gave a TGI (TK-10 renal) of over 100 µM, a TGI (HCC-2998 colon) of over 100 µM and a TGI (MALME-3M melanoma) of over 100 µM. The TGI (RPMI-8226 leukemia) was over 100 µM, the TGI (SN12C renal) was over 100 µM and the TGI (HOP-62 NSCLC) was over 100 µM. The TGI (IGROV1 ovarian) was over 100 µM, the TGI (COLO 205 colon) was over 100 µM and the TGI (SF-539 CNS) was over 100 µM. It also gave a TGI (SF-268 CNS) of over 100 µM, a TGI (OVCAR-8 ovarian) of over 100 µM and a TGI (HT29 colon) of over 100 µM. For the same compound, the TGI (A549 NSCLC) was over 100 µM.

CCOP(=O)(OCC)/C(C#N)=C/c1cc(O)ccc1O showed a TGI (ACHN renal) of over 100 µM, a TGI (SF-295 CNS) of over 100 µM and a TGI (NCI-H460 lung) of over 100 µM. For the same compound, the TGI (A498 renal) was over 100 µM, the TGI (OVCAR-3 ovarian) was over 100 µM and the TGI (UACC-62 melanoma) was over 100 µM. It also gave a TGI (DMS 114 small cell lung) of over 100 µM, a TGI (HOP-92 NSCLC) of over 100 µM and a TGI (SK-OV-3 ovarian) of over 100 µM. The TGI (HCT-116 colon) was over 100 µM, the TGI (SNB-75 CNS) was over 100 µM and the TGI (SK-MEL-28 melanoma) was over 100 µM. The TGI (NCI-H23 lung) was over 100 µM, the TGI (LXFL 529 NSCLC) was over 100 µM and the TGI (UO-31 renal) was over 100 µM. The TGI (M19-MEL melanoma) was over 100 µM, the TGI (KM20L2 colon) was over 100 µM and the TGI (KM12 colon) was over 100 µM. The TGI (SK-MEL-2 melanoma) was over 100 µM, the TGI (UACC-257 melanoma) was over 100 µM and the TGI (U251 CNS) was over 100 µM. For the same compound, the TGI (K-562 leukemia) was over 100 µM, the TGI (OVCAR-5 ovarian) was over 100 µM and the TGI (M14 melanoma) was over 100 µM. For the same compound, the TGI (SNB-19 CNS) was over 100 µM, the TGI (SNB-78 CNS) was over 100 µM and the TGI (RXF 393 renal) was over 100 µM. For the same compound, the TGI (OVCAR-4 ovarian) was over 100 µM, the TGI (MALME-3M melanoma) was over 100 µM and the TGI (RPMI-8226 leukemia) was over 100 µM. For the same compound, the TGI (HOP-62 NSCLC) was over 100 µM, the TGI (IGROV1 ovarian) was over 100 µM and the TGI (COLO 205 colon) was over 100 µM. For the same compound, the TGI (SF-539 CNS) was over 100 µM, the TGI (SF-268 CNS) was over 100 µM and the TGI (HT29 colon) was over 100 µM.
